Measurements: article PMC11167047 (Cell Death Discovery, 2024)

How the values were obtained:
Experiment in all cases: kinome screen (33PanQinase)
Assay type in all cases: biochemical
BRAF = target: T1, BRAF (Homo sapiens, UniProt P15056)
T1 construct: purchased Reaction Biology Europe GmbH (formerly ProQinase)
Description: (§1) The Kinome Screening was performed by Reaction Biology Europe GmbH (http://reactionbiology.com; Freiburg i. Br., Germany).

CDK1/CycB1 = target: T2, CDK1/CycB1 (Homo sapiens, UniProt P06493)
T2 construct: purchased Reaction Biology Europe GmbH (formerly ProQinase)
Description: as §1

CDK13/CycK = target: T3, CDK13/CycK (Homo sapiens, UniProt Q14004)
T3 construct: purchased Reaction Biology Europe GmbH (formerly ProQinase)
Description: as §1

CDK8/CycC = target: T4, CDK8/CycC (Homo sapiens, UniProt P49336)
T4 construct: purchased Reaction Biology Europe GmbH (formerly ProQinase)
Description: as §1

DAPK2 = target: T5, DAPK2 (Homo sapiens, UniProt Q9UIK4)
T5 construct: purchased Reaction Biology Europe GmbH (formerly ProQinase)
Description: as §1

EPHA4 = target: T6, EPHA4 (Homo sapiens, UniProt P54764)
T6 construct: purchased Reaction Biology Europe GmbH (formerly ProQinase)
Description: as §1

MST3 = target: T7, MST3 (Homo sapiens, UniProt Q9Y6E0)
T7 construct: purchased Reaction Biology Europe GmbH (formerly ProQinase)
Description: as §1

NEK11 = target: T8, NEK11 (Homo sapiens, UniProt Q8NG66)
T8 construct: purchased Reaction Biology Europe GmbH (formerly ProQinase)
T8 sequence (Q8NG66 1-645): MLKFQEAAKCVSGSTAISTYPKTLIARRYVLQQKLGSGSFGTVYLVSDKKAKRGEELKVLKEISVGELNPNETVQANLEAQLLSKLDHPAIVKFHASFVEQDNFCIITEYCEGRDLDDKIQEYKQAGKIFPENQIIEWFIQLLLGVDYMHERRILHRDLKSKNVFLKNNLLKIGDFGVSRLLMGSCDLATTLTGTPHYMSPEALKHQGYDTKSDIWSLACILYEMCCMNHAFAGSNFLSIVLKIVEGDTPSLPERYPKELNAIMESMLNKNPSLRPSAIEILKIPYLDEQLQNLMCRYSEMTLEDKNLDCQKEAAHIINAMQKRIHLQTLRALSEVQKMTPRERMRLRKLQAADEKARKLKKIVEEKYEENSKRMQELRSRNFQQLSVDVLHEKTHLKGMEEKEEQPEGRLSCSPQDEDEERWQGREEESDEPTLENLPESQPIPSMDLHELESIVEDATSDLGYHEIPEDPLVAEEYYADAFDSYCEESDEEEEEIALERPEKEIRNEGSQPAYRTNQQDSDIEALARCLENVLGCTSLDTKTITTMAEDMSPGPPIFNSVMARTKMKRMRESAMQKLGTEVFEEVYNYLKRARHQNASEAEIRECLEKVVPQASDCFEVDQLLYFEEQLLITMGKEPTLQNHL
Description: as §1

PKCε = target: T9, PKCε (Homo sapiens, UniProt Q02156)
T9 construct: purchased Reaction Biology Europe GmbH (formerly ProQinase)
T9 sequence (Q02156 1-737): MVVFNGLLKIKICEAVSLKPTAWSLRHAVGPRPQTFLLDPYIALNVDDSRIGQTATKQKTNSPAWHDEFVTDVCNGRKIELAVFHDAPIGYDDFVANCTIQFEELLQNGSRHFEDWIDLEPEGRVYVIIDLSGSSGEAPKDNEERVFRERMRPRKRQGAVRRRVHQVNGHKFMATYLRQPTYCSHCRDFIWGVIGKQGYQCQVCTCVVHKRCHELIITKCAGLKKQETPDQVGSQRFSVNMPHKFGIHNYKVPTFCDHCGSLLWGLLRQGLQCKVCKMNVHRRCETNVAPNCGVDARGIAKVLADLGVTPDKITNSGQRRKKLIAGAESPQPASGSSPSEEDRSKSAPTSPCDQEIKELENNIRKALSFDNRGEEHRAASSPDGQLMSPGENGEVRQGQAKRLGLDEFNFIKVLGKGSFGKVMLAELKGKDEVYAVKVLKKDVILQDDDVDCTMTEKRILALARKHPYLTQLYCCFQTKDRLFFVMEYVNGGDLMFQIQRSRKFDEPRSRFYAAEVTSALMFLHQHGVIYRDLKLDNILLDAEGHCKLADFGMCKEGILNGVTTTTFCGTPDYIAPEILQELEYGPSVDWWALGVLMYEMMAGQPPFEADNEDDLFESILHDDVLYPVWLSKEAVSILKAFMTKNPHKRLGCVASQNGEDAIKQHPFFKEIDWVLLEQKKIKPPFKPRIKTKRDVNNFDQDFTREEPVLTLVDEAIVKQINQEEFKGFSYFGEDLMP
Description: as §1

PLK3 = target: T10, PLK3 (Homo sapiens, UniProt Q9H4B4)
T10 construct: purchased Reaction Biology Europe GmbH (formerly ProQinase)
Description: as §1

PRKG1 = target: T11, PRKG1 (Homo sapiens, UniProt Q13976)
T11 construct: purchased Reaction Biology Europe GmbH (formerly ProQinase)
T11 sequence (Q13976 1-671): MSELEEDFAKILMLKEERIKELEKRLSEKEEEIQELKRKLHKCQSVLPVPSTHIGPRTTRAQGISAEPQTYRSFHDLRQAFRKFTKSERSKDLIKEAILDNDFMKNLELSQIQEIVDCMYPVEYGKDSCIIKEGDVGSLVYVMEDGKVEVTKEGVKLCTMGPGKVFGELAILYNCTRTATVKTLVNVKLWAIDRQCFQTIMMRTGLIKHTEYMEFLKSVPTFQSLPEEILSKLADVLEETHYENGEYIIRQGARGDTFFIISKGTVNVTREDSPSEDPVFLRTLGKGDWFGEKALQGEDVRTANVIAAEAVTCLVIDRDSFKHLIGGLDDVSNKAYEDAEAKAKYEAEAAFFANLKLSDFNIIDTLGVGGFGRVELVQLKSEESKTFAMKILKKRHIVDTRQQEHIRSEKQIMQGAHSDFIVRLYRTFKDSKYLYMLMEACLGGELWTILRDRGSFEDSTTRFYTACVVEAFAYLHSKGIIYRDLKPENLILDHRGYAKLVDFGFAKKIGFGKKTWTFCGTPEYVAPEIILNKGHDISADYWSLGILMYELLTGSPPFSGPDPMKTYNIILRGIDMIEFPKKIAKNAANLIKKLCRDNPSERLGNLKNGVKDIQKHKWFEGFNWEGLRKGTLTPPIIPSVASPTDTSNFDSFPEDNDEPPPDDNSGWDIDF
Description: as §1

S6K = target: T12, S6K (Homo sapiens, UniProt P23443)
T12 construct: purchased Reaction Biology Europe GmbH (formerly ProQinase)
Description: as §1

T5 sequence (Q9UIK4 whole entry): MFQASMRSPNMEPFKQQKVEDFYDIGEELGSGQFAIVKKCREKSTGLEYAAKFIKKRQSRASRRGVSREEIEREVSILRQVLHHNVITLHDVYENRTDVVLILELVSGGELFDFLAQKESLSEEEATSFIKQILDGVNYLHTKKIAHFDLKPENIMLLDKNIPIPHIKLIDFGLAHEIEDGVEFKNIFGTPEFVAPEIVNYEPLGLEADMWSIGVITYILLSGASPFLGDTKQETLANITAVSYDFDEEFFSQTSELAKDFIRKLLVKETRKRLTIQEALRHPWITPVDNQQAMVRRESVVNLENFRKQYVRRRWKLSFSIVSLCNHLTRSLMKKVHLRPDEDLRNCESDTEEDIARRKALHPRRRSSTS
T4 sequence (P49336 whole entry): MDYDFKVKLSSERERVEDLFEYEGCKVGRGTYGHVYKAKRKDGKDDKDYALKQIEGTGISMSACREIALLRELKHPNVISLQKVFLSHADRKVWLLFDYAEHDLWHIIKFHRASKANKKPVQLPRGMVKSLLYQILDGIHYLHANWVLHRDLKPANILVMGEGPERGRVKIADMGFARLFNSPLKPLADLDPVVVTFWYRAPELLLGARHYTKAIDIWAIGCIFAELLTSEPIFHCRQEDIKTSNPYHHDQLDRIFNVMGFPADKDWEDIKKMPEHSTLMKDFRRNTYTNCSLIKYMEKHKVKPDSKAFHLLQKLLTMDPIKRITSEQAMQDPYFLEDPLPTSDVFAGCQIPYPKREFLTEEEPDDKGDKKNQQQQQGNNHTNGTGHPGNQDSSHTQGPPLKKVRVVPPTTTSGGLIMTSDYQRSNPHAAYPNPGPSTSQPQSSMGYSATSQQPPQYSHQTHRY
T4 sequence (P24863 whole entry partner): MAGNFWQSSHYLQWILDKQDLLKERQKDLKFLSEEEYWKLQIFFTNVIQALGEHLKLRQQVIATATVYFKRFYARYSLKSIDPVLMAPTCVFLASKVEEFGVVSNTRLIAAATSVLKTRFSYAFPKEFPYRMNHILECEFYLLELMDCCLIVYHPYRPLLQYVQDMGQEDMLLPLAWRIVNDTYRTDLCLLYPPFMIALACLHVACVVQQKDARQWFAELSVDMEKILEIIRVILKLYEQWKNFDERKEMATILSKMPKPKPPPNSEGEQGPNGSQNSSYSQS
T3 sequence (Q14004 whole entry): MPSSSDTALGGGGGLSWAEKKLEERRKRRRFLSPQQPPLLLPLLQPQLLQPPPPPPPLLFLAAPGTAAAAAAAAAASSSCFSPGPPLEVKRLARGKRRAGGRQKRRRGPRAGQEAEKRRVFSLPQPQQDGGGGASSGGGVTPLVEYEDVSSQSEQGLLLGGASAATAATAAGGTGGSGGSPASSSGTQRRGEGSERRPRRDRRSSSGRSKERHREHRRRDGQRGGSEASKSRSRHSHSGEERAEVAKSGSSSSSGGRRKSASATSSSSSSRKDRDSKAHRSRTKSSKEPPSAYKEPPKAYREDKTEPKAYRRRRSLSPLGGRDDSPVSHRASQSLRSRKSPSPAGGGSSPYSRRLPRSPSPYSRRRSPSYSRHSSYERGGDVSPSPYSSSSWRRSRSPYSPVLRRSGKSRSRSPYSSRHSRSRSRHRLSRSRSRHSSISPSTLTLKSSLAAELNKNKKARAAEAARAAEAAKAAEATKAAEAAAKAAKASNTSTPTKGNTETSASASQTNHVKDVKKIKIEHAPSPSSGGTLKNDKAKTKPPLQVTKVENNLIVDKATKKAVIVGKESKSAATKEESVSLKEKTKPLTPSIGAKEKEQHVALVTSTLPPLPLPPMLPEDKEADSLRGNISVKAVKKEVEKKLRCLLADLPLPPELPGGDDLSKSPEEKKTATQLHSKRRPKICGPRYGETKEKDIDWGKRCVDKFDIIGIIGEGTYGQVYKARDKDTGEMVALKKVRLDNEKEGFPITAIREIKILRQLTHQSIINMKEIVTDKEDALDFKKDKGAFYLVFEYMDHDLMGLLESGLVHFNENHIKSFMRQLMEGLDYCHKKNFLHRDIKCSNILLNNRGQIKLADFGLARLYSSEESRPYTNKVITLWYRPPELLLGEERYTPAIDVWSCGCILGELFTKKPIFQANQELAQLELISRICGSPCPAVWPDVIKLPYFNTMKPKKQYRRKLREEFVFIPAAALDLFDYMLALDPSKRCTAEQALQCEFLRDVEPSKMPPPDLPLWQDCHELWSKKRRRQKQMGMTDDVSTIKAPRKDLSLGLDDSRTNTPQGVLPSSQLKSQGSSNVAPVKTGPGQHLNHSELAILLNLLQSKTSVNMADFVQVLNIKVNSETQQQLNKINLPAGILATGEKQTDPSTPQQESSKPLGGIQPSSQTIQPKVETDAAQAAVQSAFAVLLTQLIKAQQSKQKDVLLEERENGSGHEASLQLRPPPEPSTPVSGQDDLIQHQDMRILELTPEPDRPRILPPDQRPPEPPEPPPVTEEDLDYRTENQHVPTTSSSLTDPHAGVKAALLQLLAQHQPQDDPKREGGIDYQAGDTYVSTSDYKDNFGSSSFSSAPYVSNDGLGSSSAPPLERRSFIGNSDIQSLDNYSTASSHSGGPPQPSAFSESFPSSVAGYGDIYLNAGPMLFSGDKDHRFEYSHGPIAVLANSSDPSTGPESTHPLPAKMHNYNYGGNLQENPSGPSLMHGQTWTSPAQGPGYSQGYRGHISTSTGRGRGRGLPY
T3 sequence (O75909 whole entry partner): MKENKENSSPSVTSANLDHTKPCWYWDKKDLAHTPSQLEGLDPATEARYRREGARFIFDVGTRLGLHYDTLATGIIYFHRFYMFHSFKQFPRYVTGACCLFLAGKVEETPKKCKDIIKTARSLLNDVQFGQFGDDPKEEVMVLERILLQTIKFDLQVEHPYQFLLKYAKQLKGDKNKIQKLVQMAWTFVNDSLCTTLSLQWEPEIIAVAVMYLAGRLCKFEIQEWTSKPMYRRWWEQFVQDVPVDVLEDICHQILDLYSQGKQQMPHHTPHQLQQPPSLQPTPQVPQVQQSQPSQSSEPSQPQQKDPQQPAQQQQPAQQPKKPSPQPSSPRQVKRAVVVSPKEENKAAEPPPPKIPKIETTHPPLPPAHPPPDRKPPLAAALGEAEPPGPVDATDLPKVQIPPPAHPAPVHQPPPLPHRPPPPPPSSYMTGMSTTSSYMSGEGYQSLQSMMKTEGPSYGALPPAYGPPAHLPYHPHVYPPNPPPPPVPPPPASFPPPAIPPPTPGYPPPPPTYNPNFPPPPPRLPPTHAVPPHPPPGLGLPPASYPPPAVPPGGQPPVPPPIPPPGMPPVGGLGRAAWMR
T12 sequence (P23443 whole entry): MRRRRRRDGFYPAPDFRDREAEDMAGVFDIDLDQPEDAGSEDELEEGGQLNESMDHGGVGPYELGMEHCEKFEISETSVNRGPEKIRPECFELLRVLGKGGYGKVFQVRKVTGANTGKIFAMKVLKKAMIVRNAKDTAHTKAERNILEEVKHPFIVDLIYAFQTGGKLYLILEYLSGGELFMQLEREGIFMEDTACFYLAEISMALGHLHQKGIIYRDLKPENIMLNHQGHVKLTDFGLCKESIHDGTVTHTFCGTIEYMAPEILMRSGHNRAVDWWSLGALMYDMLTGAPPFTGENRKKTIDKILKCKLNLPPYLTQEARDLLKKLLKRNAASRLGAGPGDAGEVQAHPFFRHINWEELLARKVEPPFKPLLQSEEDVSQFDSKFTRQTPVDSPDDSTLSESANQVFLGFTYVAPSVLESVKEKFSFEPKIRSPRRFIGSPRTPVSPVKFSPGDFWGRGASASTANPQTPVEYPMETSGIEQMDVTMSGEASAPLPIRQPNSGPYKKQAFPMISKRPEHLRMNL
T2 sequence (P06493 whole entry): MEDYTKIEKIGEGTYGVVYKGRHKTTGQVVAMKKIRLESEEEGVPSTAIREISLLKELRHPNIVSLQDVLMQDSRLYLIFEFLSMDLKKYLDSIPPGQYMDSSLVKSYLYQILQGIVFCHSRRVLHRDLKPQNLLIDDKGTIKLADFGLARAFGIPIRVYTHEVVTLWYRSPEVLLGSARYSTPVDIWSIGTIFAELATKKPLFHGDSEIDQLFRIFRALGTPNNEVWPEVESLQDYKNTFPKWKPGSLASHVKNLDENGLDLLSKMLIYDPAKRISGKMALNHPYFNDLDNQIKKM
T2 sequence (P14635 whole entry partner): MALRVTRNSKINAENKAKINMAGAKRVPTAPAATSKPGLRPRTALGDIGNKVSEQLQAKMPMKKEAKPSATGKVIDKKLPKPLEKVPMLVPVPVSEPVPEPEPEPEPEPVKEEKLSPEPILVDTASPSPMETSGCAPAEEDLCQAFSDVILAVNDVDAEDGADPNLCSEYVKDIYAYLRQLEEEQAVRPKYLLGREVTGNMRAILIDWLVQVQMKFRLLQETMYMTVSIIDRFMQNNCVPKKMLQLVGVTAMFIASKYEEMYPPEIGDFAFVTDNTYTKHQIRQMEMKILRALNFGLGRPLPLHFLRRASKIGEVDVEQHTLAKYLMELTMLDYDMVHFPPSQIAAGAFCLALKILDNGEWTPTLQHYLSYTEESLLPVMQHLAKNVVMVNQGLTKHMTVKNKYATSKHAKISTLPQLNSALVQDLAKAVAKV
T7 sequence (Q9Y6E0 whole entry): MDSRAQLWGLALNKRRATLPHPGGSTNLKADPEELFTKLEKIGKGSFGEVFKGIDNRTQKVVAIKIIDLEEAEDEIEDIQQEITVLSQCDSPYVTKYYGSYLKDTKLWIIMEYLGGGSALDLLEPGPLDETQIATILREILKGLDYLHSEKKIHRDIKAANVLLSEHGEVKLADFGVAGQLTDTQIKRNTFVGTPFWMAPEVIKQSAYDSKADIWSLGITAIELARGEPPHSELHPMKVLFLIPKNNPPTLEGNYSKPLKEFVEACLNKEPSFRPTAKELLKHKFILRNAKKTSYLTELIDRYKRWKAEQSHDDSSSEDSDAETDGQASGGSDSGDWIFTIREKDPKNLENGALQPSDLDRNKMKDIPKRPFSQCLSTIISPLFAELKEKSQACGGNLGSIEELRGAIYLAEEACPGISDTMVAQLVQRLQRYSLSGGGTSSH

## COc1ccnc2[nH]cc(-c3cc(N)nc(N)c3)c12 [meriolin 16]
BRAF; 0.03 µM
  residual kinase activity: 94 % of control
CDK1/CycB1; 0.03 µM
  residual kinase activity: 29 % of control
CDK1/CycB1; 0.3 µM
  residual kinase activity: 5 % of control
CDK13/CycK; 0.03 µM
  residual kinase activity: 31 % of control
CDK13/CycK; 0.3 µM
  residual kinase activity: 5 % of control
CDK8/CycC; 0.03 µM
  residual kinase activity: 6 % of control
CDK8/CycC; 0.3 µM
  residual kinase activity: 4 % of control
DAPK2; 0.03 µM
  residual kinase activity: 106 % of control
DAPK2; 0.3 µM
  residual kinase activity: 78 % of control
EPHA4; 0.03 µM
  residual kinase activity: 105 % of control
EPHA4; 0.3 µM
  residual kinase activity: 85 % of control
MST3; 0.03 µM
  residual kinase activity: 101 % of control
MST3; 0.3 µM
  residual kinase activity: 91 % of control
NEK11; 0.03 µM
  residual kinase activity: 97 % of control
NEK11; 0.3 µM
  residual kinase activity: 87 % of control
PKCε; 0.03 µM
  residual kinase activity: 25 % of control
PKCε; 0.3 µM
  residual kinase activity: 4 % of control
PLK3; 0.03 µM
  residual kinase activity: 95 % of control
PLK3; 0.3 µM
  residual kinase activity: 92 % of control
PRKG1; 0.03 µM
  residual kinase activity: 75 % of control
PRKG1; 0.3 µM
  residual kinase activity: 30 % of control
S6K; 0.03 µM
  residual kinase activity: 99 % of control
S6K; 0.3 µM
  residual kinase activity: 84 % of control

## c1ccc(CNc2cc(-c3c[nH]c4ncccc34)ccn2)cc1 [meriolin 36]
BRAF; 0.3 µM
  residual kinase activity: 66 % of control
BRAF; 3 µM
  residual kinase activity: 50 % of control
CDK1/CycB1; 0.3 µM
  residual kinase activity: 4 % of control
CDK1/CycB1; 3 µM
  residual kinase activity: 1 % of control
CDK13/CycK; 0.3 µM
  residual kinase activity: 12 % of control
CDK13/CycK; 3 µM
  residual kinase activity: -10 % of control
CDK8/CycC; 0.3 µM
  residual kinase activity: 5 % of control
CDK8/CycC; 3 µM
  residual kinase activity: 2 % of control
DAPK2; 0.3 µM
  residual kinase activity: 118 % of control
DAPK2; 3 µM
  residual kinase activity: 67 % of control
EPHA4; 0.3 µM
  residual kinase activity: 93 % of control
EPHA4; 3 µM
  residual kinase activity: 72 % of control
MST3; 0.3 µM
  residual kinase activity: 71 % of control
MST3; 3 µM
  residual kinase activity: 32 % of control
NEK11; 0.3 µM
  residual kinase activity: 105 % of control
NEK11; 3 µM
  residual kinase activity: 85 % of control
PKCε; 0.3 µM
  residual kinase activity: 5 % of control
PKCε; 3 µM
  residual kinase activity: 1 % of control
PLK3; 0.3 µM
  residual kinase activity: 97 % of control
PLK3; 3 µM
  residual kinase activity: 87 % of control
PRKG1; 0.3 µM
  residual kinase activity: 6 % of control
PRKG1; 3 µM
  residual kinase activity: 1 % of control
S6K; 0.3 µM
  residual kinase activity: 82 % of control
S6K; 3 µM
  residual kinase activity: 37 % of control
